US20230087118A1, “IMIDAZO[1,2-a][sequence] DERIVATIVES AND THEIR USE IN THE TREATMENT OF DISEASE” (priority 2019, published 2023)
Counter-ions that a name gives are not always drawn.

target: T1, IRAK4 (Homo sapiens, UniProt Q9NWZ3); experiment: biochemical; details: not given
T1 sequence (Q9NWZ3 1-460): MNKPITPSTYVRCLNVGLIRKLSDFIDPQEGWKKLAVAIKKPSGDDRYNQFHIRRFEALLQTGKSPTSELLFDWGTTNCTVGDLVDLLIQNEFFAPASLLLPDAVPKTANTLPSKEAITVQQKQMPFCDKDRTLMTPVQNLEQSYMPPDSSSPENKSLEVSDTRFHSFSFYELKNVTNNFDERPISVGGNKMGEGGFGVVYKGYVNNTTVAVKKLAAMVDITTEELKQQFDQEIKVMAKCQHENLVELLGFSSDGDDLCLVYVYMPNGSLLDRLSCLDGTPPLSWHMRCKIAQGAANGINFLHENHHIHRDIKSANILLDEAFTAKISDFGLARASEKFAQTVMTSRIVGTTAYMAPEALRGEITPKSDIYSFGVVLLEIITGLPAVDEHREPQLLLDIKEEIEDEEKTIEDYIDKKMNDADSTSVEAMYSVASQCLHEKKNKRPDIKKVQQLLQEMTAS

| Structure (SMILES) | IC50 [µM] |
| --- | --- |
| CC(C)Oc1nc(C(=O)Nc2cccn(C)c2=O)cn2cc(C34CCC(C)(C3)OC4)nc12 (stereo not drawn) [Example 341, 8-Isopropoxy-N-(1-methyl-2-oxo-1,2-dihydropyridin-3-yl)-2-(1-methyl-2-oxabicyclo[2.2.1]heptan-4-yl)imidazo[1,2-a]pyrazine-6-carboxamide] | 0.0009 |
| Cn1cccc(NC(=O)c2cn3cc(C45CCC(C)(C4)OC5)nc3cc2OC2CCCC2)c1=O (stereo not drawn) [Example 558] | 0.0011 |
| CCOc1cc2nc([C@H]3C[C@@H]3F)cn2cc1C(=O)Nc1cccc(OC)n1 (single isomer, unassigned) [Example 66] | 0.025 |
| CC(C)Oc1cc2nc(C34CCC(C)(C3)OC4)cn2cc1C(=O)Nc1cccc(F)c1F (stereo not drawn) [Example 515, N-(2,3-difluorophenyl)-7-isopropoxy-2-(1-methyl-2-oxabicyclo[2.2.1]heptan-4-yl)imidazo[1,2-a]pyridine-6-carboxamide] | 0.0014 |
| CC12CCC(c3cn4cc(C(=O)Nc5cnn6cc(F)cnc56)c(OC5CC5)cc4n3)(CO1)C2 (stereo not drawn) [Example 556] | 0.0005 |
| Cc1cnc2c(NC(=O)c3cn4cc(C56COC(C)(C5)C6)nc4cc3OC3CCCC3)cnn2c1 [Example 568, 7-(Cyclopentyloxy)-2-(1-methyl-2-oxabicyclo[2.1.1]hexan-4-yl)-N-(6-methylpyrazolo[1,5-a]pyrimidin-3-yl)imidazo[1,2-a]pyridine-6-carboxamide] | 0.0002 |
| CC(C)Oc1cc2nc(C34COC(C)(C3)C4)c(F)n2cc1C(=O)Nc1cccc2ncnn12 [Example 329, N-([1,2,4]triazolo[1,5-a]pyridin-5-yl)-3-fluoro-7-isopropoxy-2-(1-methyl-2-oxabicyclo[2.1.1]hexan-4-yl)imidazo[1,2-a]pyridine-6-carboxamide trifluoroactate] | 0.0012 |
| CC(C)Oc1cc(C(=O)Nc2cccc(C(F)F)n2)cn2cc(C3CCCOC3)nc12 (stereo not drawn) [Example 394, N-(6-(difluoromethyl)pyridin-2-yl)-8-isopropoxy-2-(tetrahydro-2H-pyran-3-yl)imidazo[1,2-a]pyridine-6-carboxamide] | 0.0057 |
| CC(C)Oc1cc2nc(C34COC(C)(C3)C4)c(Cl)n2cc1C(=O)Nc1cccc(C(F)F)n1 [Example 229, 3-Chloro-N-(6-(difluoromethyl)pyridin-2-yl)-7-isopropoxy-2-(1-methyl-2-oxabicyclo[2.1.1]hexan-4-yl)imidazo[1,2-a]pyridine-6-carboxamide] | 0.0393 |
| COc1cc2nc(C3CCOCC3)cn2cc1C(=O)Nc1cccn(C)c1=O [Example 183] | 0.0069 |
| Cc1cccc(NC(=O)c2cn3cc(C45COC(C)(C4)C5)nc3nc2OC(C)C)n1 [Example 355, 7-Isopropoxy-2-(1-methyl-2-oxabicyclo[2.1.1]hexan-4-yl)-N-(6-methylpyridin-2-yl)imidazo[1,2-a]pyrimidine-6-carboxamide] | 0.0016 |
| O=C(Nc1cccc(C(F)F)n1)c1cn2cc(C3CC3)nc2cc1OC1CCCC1 [Example 467, 7-(Cyclopentyloxy)-2-cyclopropyl-N-(6-(difluoromethyl)pyridin-2-yl)imidazo[1,2-a]pyridine-6-carboxamide] | 0.001 |
| COc1cccc(NC(=O)c2cn3cc(C4CCOCC4)nc3cn2)n1 [Example 81] | 0.232 |
| Cc1cnc2c(NC(=O)c3cn4cc(C56COC(C)(C5)C6)nc4cc3O[C@H](C)C3CC3)cnn2c1 (single isomer, unassigned) [Example 657] | 0.0009 |
| CC(C)Oc1cc2nc(C34CCC(C)(C3)OC4)cn2cc1C(=O)Nc1ccccn1 (stereo not drawn) [Example 518, 7-Isopropoxy-2-(1-methyl-2-oxabicyclo[2.2.1]heptan-4-yl)-N-(pyridin-2-yl)imidazo[1,2-a]pyridine-6-carboxamide] | 0.004 |
| COCc1cc2nc(C34COC(C)(C3)C4)cn2cc1C(=O)Nc1ccn(C)n1 [Example 286, 7-(Methoxymethyl)-N-(1-methyl-1H-pyrazol-3-yl)-2-(1-methyl-2-oxabicyclo[2.1.1]hexan-4-yl)imidazo[1,2-a]pyridine-6-carboxamide] | 5.98 |
| CC12CC(c3cn4cc(C(=O)Nc5cccn(C(F)F)c5=O)c(OC5CC(F)(F)C5)cc4n3)(CO1)C2 [Example 455, 7-(3,3-Difluorocyclobutoxy)-N-(1-(difluoromethyl)-2-oxo-1,2-dihydropyridin-3-yl)-2-(1-methyl-2-oxabicyclo[2.1.1]hexan-4-yl)imidazo[1,2-a]pyridine-6-carboxamide] | 0.0012 |
| CCn1cccc(NC(=O)c2cn3cc(C4CCOCC4)nc3cc2OC)c1=O [Example 185] | 0.0434 |
| CCOc1cc2nc([C@@H]3C[C@@H]3F)cn2cc1C(=O)Nc1cccc(OC)n1 [Example 80] | 0.029 |

More lines, now with the values ahead:

| IC50 [µM] | Structure (SMILES) |
| --- | --- |
| 0.0444 | CCOc1cc2nc([C@@H]3CC3(F)F)cn2cc1C(=O)Nc1cccc(OC)n1 (single isomer, unassigned) [Example 69] |
| 0.0065 | CCOc1nc(C(=O)Nc2ccn(C(F)F)n2)cn2cc(C34COC(C)(C3)C4)nc12 [Example 490, N-(1-(difluoromethyl)-1H-pyrazol-3-yl)-8-ethoxy-2-(1-methyl-2-oxabicyclo[2.1.1]hexan-4-yl)imidazo[1,2-a]pyrazine-6-carboxamide] |
| 0.0065 | CC(C)Oc1nc(C(=O)Nc2ccn(C)n2)cn2cc([C@]34CC[C@](C)(C3)OC4)nc12 (single isomer, unassigned) [Example 593] |
| 0.0002 | CC(C)Oc1cc2nc([C@@]34CC[C@@](C)(C3)OC4)cn2cc1C(=O)Nc1cnn2cccnc12 (single isomer, unassigned) [Example 615] |
| 0.123 | COc1cnccc1NC(=O)c1cn2cc(C3CCOCC3)nc2cc1OC [Example 195] |
| 7.51 | COCCn1ccc(NC(=O)c2cn3cc(C4C5COCC54)nc3cn2)n1 (stereo not drawn) [Example 84] |
| 0.001 | CC(C)Oc1nc2nc(C34CC(C)(C3)OC4(C)C)cn2cc1C(=O)Nc1cnn2cc(F)cnc12 [Example 310, N-(6-fluoropyrazolo[1,5-a]pyrimidin-3-yl)-7-isopropoxy-2-(1,3,3-trimethyl-2-oxabicyclo[2.1.1]hexan-4-yl)imidazo[1,2-a]pyrimidine-6-carboxamide] |
| 0.0024 | Cc1cnc2c(NC(=O)c3cn4cc(C56CCC(C)(C5)OC6)nc4nc3OC(C)C)cnn2c1 (stereo not drawn) [Example 569, 7-Isopropoxy-2-(1-methyl-2-oxabicyclo[2.2.1]heptan-4-yl)-N-(6-methylpyrazolo[1,5-a]pyrimidin-3-yl)imidazo[1,2-a]pyrimidine-6-carboxamide] |
| 0.0073 | CC(C)Oc1cc2nc(C(F)F)cn2cc1C(=O)Nc1cccc(C(F)F)n1 [Example 99] |
| 0.0034 | CC12CC(c3cn4cc(C(=O)Nc5cccc(C(F)F)n5)nc(OCC(F)F)c4n3)(CO1)C2 [Example 344, 8-(2,2-Difluoroethoxy)-N-(6-(difluoromethyl)pyridin-2-yl)-2-(1-methyl-2-oxabicyclo[2.1.1]hexan-4-yl)imidazo[1,2-a]pyrazine-6-carboxamide] |
| 0.0002 | CC(C)Oc1cc2nc(C34CCC(C)(C3)OC4)cn2cc1C(=O)Nc1cnn2cccnc12 (stereo not drawn) [Example 417, 7-Isopropoxy-2-(1-methyl-2-oxabicyclo[2.2.1]heptan-4-yl)-N-(pyrazolo[1,5-a]pyrimidin-3-yl)imidazo[1,2-a]pyridine-6-carboxamide] |
| 0.0209 | COc1ncccc1NC(=O)c1cn2cc(C3CCOCC3)nc2c(OC)n1 [Example 208] |
| 0.0023 | CC(C)Oc1cc2nc([C@@]34CC[C@@](C)(C3)OC4)cn2cc1C(=O)Nc1ccn(C)n1 (single isomer, unassigned) [Example 606] |

same assay, conditions: IRAK4 Biochemical Assay (1 mM ATP, 2 h) IC50 (μM), 1 mM ATP, 2 h, 100 pM IRAK4

| Structure (SMILES) | IC50 [µM] |
| --- | --- |
| CC(C)Oc1cc2nc(C34COC(C)(C3)C4)cn2cc1C(=O)Nc1ccn(C2CCCC2)n1 [Example 315, N-(1-cyclopentyl-1H-pyrazol-3-yl)-7-isopropoxy-2-(1-methyl-2-oxabicyclo[2.1.1]hexan-4-yl)imidazo[1,2-a]pyridine-6-carboxamide trifluoroacetate] | 0.0045 |
| CC1(COc2cc3nc(C45COC(C)(C4)C5)cn3cc2C(=O)Nc2cccn(C(F)F)c2=O)CCOC1 (stereo not drawn) [Example 444, N-(1-(difluoromethyl)-2-oxo-1,2-dihydropyridin-3-yl)-2-(1-methyl-2-oxabicyclo[2.1.1]hexan-4-yl)-7-((3-methyltetrahydrofuran-3-yl)methoxy)imidazo[1,2-a]pyridine-6-carboxamide] | 0.0042 |
| CC(C)Oc1nc2nc(C34COC(C)(C3)C4)cn2cc1C(=O)Nc1cnn2cc(F)cnc12 [Example 398, N-(6-fluoropyrazolo[1,5-a]pyrimidin-3-yl)-7-isopropoxy-2-(1-methyl-2-oxabicyclo[2.1.1]hexan-4-yl)imidazo[1,2-a]pyrimidine-6-carboxamide] | 0.0002 |
| CCc1cccc(NC(=O)c2cn3cc(C4CC5(CCOC5)C4)nc3cc2OC)n1 (stereo not drawn) [Example 62] | 0.0038 |
| CC(C)Oc1nc2nc(C34CCC(C)(CC3)OC4)cn2cc1C(=O)Nc1cccc(C(F)F)n1 [Example 383, N-(6-(difluoromethyl)pyridin-2-yl)-7-isopropoxy-2-(1-methyl-2-oxabicyclo[2.2.2]octan-4-yl)imidazo[1,2-a]pyrimidine-6-carboxamide] | 0.0001 |
| CC1(COc2cc3nc(C4CC4)cn3cc2C(=O)Nc2cccc(C(F)F)n2)CCOC1 (stereo not drawn) [Example 475, 2-Cyclopropyl-N-(6-(difluoromethyl)pyridin-2-yl)-7-((3-methyltetrahydrofuran-3-yl)methoxy)imidazo[1,2-a]pyridine-6-carboxamide] | 0.0088 |
| COc1cc2nc(C34COC(CF)(C3)C4)cn2cc1C(=O)Nc1ccccn1 [Example 5] | 0.0721 |
